Laboratory results taken from patent US20250302832A1, “PYRAZINE DERIVATIVES AND USES THEREOF” (FOGHORN THERAPEUTICS INC., priority 2022, published 2025).

Key:
[1] = target: T1, HiBit-BRG1 fusion protein (Homo sapiens, UniProt P51532); assay: HiBiT-BRG1 cell-based degradation assay (Nano-Glo HiBiT lytic detection, 24 h); conditions: HeLa cell line expressing HiBit-BRG1 and LgBit; for Dmax: read-out: BRG1 HiBit Degradation Maximum (%); for DC50: read-out: BRMG1 HiBit Degradation IC50
T1 construct: expressed in transfected cells
Method in brief: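 HeLa cells stably expressing HiBiT-BRG1 and LgBiT, 5000 per well, compound-treated 24 h, equilibrated 15 min at room temperature, then lysed with LgBiT-containing Nano-Glo HiBiT lytic reagent and luminescence read. % degradation normalised between DMSO (high control) and 2 μM reference BRM/BRG1 degrader (low control).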

[2] = target: T2, HiBit-BRM fusion protein (Homo sapiens, UniProt P51531); assay: HiBiT-BRM cell-based degradation assay (Nano-Glo HiBiT lytic detection, 24 h); conditions: HeLa cell line expressing HiBiT-BRM; for DC50: read-out: BRM HiBit Degradation IC50
T2 construct: expressed in transfected cells
Method in brief: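 Stable HeLa HiBiT-BRM cells treated 24 h with compounds (10-point 3-fold dilutions, 30 μM final top dose, duplicate). HiBiT levels read by Nano-Glo lytic luminescence; % degradation normalised to DMSO (high control) and 2 μM reference BRM/BRG1 degrader (low control).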

T2 sequence (P51531 whole entry, the tested form may be a part): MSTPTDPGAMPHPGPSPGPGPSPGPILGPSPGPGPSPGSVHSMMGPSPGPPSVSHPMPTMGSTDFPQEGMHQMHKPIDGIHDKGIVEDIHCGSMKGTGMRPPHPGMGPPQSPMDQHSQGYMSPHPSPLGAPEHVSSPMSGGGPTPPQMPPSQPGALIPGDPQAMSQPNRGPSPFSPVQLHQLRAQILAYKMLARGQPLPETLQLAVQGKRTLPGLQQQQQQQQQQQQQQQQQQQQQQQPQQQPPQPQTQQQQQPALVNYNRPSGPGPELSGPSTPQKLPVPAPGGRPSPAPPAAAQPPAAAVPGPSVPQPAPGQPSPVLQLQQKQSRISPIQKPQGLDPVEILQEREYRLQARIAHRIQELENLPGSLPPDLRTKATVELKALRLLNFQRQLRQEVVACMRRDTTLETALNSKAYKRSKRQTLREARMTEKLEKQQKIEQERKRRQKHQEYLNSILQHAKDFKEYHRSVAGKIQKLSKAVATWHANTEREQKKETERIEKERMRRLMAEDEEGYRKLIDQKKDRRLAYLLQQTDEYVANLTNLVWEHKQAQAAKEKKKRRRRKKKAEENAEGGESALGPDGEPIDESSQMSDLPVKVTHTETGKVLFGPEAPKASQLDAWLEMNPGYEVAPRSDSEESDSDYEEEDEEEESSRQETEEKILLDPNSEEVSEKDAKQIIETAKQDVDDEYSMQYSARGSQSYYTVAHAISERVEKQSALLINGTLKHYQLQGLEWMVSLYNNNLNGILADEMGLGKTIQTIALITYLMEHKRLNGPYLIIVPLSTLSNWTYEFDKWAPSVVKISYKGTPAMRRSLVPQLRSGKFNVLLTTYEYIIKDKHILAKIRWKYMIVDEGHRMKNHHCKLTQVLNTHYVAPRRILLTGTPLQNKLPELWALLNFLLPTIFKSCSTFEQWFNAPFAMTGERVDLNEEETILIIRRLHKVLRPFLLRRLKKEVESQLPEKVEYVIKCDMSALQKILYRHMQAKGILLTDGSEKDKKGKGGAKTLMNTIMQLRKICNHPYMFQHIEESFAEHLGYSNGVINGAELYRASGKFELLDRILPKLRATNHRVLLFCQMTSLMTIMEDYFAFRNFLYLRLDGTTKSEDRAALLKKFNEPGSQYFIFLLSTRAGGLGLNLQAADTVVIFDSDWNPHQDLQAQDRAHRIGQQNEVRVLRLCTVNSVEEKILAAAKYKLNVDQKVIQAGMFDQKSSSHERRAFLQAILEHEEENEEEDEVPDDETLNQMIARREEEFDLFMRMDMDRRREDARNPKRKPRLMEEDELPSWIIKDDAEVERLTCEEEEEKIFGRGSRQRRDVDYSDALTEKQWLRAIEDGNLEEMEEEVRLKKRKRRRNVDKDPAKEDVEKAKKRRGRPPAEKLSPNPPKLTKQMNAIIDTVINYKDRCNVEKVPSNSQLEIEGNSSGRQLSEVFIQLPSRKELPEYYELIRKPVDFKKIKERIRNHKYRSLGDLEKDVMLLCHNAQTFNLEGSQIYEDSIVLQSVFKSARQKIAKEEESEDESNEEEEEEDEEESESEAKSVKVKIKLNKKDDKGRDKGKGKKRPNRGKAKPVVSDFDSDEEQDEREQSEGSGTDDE
T1 sequence (P51532 whole entry, the tested form may be a part): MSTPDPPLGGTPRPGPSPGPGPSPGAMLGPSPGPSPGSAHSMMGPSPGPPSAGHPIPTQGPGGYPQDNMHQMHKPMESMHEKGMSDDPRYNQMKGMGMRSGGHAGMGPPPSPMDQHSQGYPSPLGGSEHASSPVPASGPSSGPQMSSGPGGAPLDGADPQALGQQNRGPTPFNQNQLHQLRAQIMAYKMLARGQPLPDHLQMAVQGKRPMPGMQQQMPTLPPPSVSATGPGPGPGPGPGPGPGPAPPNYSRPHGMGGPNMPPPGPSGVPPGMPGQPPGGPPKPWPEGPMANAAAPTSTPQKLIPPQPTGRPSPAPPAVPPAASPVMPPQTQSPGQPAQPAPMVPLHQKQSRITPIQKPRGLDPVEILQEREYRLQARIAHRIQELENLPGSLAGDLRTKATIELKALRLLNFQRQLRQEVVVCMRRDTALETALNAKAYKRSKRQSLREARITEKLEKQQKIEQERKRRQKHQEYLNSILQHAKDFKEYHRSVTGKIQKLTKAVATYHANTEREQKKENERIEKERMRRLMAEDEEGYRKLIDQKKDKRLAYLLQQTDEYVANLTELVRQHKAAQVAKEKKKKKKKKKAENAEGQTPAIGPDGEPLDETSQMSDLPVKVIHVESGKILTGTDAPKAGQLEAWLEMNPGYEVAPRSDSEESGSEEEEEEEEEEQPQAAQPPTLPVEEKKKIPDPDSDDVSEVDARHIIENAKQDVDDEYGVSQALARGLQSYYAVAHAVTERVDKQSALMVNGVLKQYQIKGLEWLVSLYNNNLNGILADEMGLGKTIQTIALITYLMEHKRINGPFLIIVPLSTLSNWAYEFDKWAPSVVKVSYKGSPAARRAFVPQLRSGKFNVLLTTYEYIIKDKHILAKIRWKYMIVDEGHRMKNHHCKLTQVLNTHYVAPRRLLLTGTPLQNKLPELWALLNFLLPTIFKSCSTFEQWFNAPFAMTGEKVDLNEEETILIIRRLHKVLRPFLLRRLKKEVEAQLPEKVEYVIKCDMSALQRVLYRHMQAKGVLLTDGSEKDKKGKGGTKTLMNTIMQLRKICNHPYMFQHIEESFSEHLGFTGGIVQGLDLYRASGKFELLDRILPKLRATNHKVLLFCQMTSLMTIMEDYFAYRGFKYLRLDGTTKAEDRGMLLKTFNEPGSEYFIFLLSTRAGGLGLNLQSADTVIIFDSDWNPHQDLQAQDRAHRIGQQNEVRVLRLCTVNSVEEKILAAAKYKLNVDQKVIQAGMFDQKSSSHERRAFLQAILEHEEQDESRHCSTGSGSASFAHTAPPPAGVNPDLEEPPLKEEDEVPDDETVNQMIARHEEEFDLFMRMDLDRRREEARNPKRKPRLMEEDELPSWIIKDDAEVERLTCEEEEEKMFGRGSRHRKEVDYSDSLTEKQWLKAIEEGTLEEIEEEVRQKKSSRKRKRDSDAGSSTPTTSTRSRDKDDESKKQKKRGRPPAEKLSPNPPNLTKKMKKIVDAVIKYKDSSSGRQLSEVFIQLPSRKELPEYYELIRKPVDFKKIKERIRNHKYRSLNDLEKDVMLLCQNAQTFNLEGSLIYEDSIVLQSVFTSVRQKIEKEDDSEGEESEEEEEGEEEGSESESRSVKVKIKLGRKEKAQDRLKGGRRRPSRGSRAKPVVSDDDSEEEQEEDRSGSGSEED

| Compound | Dmax [1] [%] | DC50 [2] [nM] | DC50 [1] [nM] | BRM HiBit Degradation Maximum (%) [2] |
| --- | --- | --- | --- | --- |
| Cc1ncsc1-c1ccc([C@H](C)NC(=O)[C@@H]2C[C@@H](O)CN2C(=O)[C@@H](c2cc(N3CCC[C@H](c4cc5nnc(-c6ccccc6O)cc5n4C4CC4)C3)no2)C(C)C)cc1 [Compound 98, (2S,4R)-1-((R)-2-(3-((S)-3-(5-cyclopropyl-3-(2-hydroxyphenyl)-5H-pyrrolo[3,2-c]pyridazin-6-yl)piperidin-1-yl)isoxazol-5-yl)-3-methylbutanoyl)-4-hydroxy-N-((S)-1-(4-(4-methylthiazol-5-yl)phenyl)ethyl)pyrrolidine-2-carboxamide] | > 75 | > 10 | > 10 | A (“A” indicates maximum degradation ≥75%) |
| Cc1ncsc1-c1ccc([C@H](C)NC(=O)[C@@H]2C[C@@H](O)CN2C(=O)[C@@H](c2cc(N3CC[C@H](c4cc5nnc(-c6ccccc6O)cc5n4C4CC4)C3)no2)C(C)C)cc1 [Compound 99, (2S,4R)-1-((R)-2-(3-((S)-3-(5-cyclopropyl-3-(2-hydroxyphenyl)-5H-pyrrolo[3,2-c]pyridazin-6-yl)pyrrolidin-1-yl)isoxazol-5-yl)-3-methylbutanoyl)-4-hydroxy-N-((S)-1-(4-(4-methylthiazol-5-yl)phenyl)ethyl)pyrrolidine-2-carboxamide] | > 50 | < 10 | > 10 | A (“A” indicates maximum degradation ≥75%) |
| Cc1ncsc1-c1ccc([C@H](C)NC(=O)[C@@H]2C[C@@H](O)CN2C(=O)[C@@H](c2cc(N3CCC[C@@H](c4cc5nnc(-c6ccccc6O)cc5n4C4CC4)C3)no2)C(C)C)cc1 [Compound 100, (2S,4R)-1-((R)-2-(3-((R)-3-(5-cyclopropyl-3-(2-hydroxyphenyl)-5H-pyrrolo[3,2-c]pyridazin-6-yl)piperidin-1-yl)isoxazol-5-yl)-3-methylbutanoyl)-4-hydroxy-N-((S)-1-(4-(4-methylthiazol-5-yl)phenyl)ethyl)pyrrolidine-2-carboxamide] | < 50 | > 10 | – | A (“A” indicates maximum degradation ≥75%) |
| Cc1ncsc1-c1ccc([C@H](C)NC(=O)[C@@H]2C[C@@H](O)CN2C(=O)[C@@H](c2cc(N3C[C@@H]4C(c5cc6nnc(-c7ccccc7O)cc6n5C5CC5)[C@H]4C3)no2)C(C)C)cc1 (stereo partly drawn) [Compound 101, (2S,4R)-1-((R)-2-(3-((1S,5S)-6-(5-cyclopropyl-3-(2-hydroxyphenyl)-5H-pyrrolo[3,2-c]pyridazin-6-yl)-3-azabicyclo[3.1.0]hexan-3-yl)isoxazol-5-yl)-3-methylbutanoyl)-4-hydroxy-N-((S)-1-(4-(4-methylthiazol-5-yl)phenyl)ethyl)pyrrolidine-2-carboxamide] | > 50 | < 10 | > 10 | A (“A” indicates maximum degradation ≥75%) |
| Cc1ncsc1-c1ccc([C@H](C)NC(=O)[C@@H]2C[C@@H](O)CN2C(=O)[C@@H](c2cc(-c3cnc(N4CC[C@@H](c5cc6nnc(-c7ccccc7O)cc6n5C5CCC5)C4)nc3)no2)C(C)C)cc1 [Compound 102, (2S,4R)-1-((R)-2-(3-(2-((R)-3-(5-cyclobutyl-3-(2-hydroxyphenyl)-5H-pyrrolo[3,2-c]pyridazin-6-yl)pyrrolidin-1-yl)pyrimidin-5-yl)isoxazol-5-yl)-3-methylbutanoyl)-4-hydroxy-N-((S)-1-(4-(4-methylthiazol-5-yl)phenyl)ethyl)pyrrolidine-2-carboxamide] | < 50 | < 10 | – | A (“A” indicates maximum degradation ≥75%) |
| Cc1ncsc1-c1ccc([C@H](C)NC(=O)[C@@H]2C[C@@H](O)CN2C(=O)[C@@H](c2cc(-c3cnc(N4CC[C@@H](c5cc6nnc(-c7ccccc7O)cc6n5C5(C)CC5)C4)nc3)no2)C(C)C)cc1 [Compound 103, (2S,4R)-4-hydroxy-1-((R)-2-(3-(2-((R)-3-(3-(2-hydroxyphenyl)-5-(1-methylcyclopropyl)-5H-pyrrolo[3,2-c]pyridazin-6-yl)pyrrolidin-1-yl)pyrimidin-5-yl)isoxazol-5-yl)-3-methylbutanoyl)-N-((S)-1-(4-(4-methylthiazol-5-yl)phenyl)ethyl)pyrrolidine-2-carboxamide] | > 50 | < 10 | < 10 | A (“A” indicates maximum degradation ≥75%) |
| Cc1ncsc1-c1ccc([C@H](C)NC(=O)[C@@H]2C[C@@H](O)CN2C(=O)[C@@H](c2cc(-c3cnc(N4CC[C@H](c5cc6nnc(-c7ccccc7O)cc6n5C5(C)CC5)C4)nc3)no2)C(C)C)cc1 [Compound 104, (2S,4R)-4-hydroxy-1-((R)-2-(3-(2-((S)-3-(3-(2-hydroxyphenyl)-5-(1-methylcyclopropyl)-5H-pyrrolo[3,2-c]pyridazin-6-yl)pyrrolidin-1-yl)pyrimidin-5-yl)isoxazol-5-yl)-3-methylbutanoyl)-N-((S)-1-(4-(4-methylthiazol-5-yl)phenyl)ethyl)pyrrolidine-2-carboxamide] | > 75 | < 10 | < 10 | A (“A” indicates maximum degradation ≥75%) |

Second part, led by results:

| Dmax [1] [%] | DC50 [2] [nM] | DC50 [1] [nM] | Compound | BRM HiBit Degradation Maximum (%) [2] |
| --- | --- | --- | --- | --- |
| < 50 | < 10 | – | CC(C)[C@@H](C(=O)N1C[C@H](O)C[C@H]1C(=O)N[C@@H](C)c1ccc(F)cc1)c1cc(-c2cnc(N3CC[C@H](c4cc5nnc(-c6ccccc6O)cc5n4C4CC4)C3)nc2)no1 [Compound 92, (2S,4R)-1-((R)-2-(3-(2-((S)-3-(5-cyclopropyl-3-(2-hydroxyphenyl)-5H-pyrrolo[3,2-c]pyridazin-6-yl)pyrrolidin-1-yl)pyrimidin-5-yl)isoxazol-5-yl)-3-methylbutanoyl)-N-((S)-1-(4-fluorophenyl)ethyl)-4-hydroxypyrrolidine-2-carboxamide] | A (“A” indicates maximum degradation ≥75%) |
| < 50 | < 10 | – | CC(C)[C@@H](C(=O)N1C[C@H](O)C[C@H]1C(=O)N[C@@H](C)c1ccccc1)c1cc(-c2cnc(N3CC[C@H](c4cc5nnc(-c6ccccc6O)cc5n4C4CC4)C3)nc2)no1 [Compound 93, (2S,4R)-1-((R)-2-(3-(2-((S)-3-(5-cyclopropyl-3-(2-hydroxyphenyl)-5H-pyrrolo[3,2-c]pyridazin-6-yl)pyrrolidin-1-yl)pyrimidin-5-yl)isoxazol-5-yl)-3-methylbutanoyl)-4-hydroxy-N-((S)-1-phenylethyl)pyrrolidine-2-carboxamide] | A (“A” indicates maximum degradation ≥75%) |
| < 50 | < 10 | – | Cc1ncsc1-c1ccc([C@H](C)NC(=O)[C@@H]2C[C@@H](O)CN2C(=O)[C@@H](c2cc(-c3cnc(N4CC[C@@H](c5cc6nnc(-c7ccccc7O)cc6n5C56CC(C5)C6)C4)nc3)no2)C(C)C)cc1 [Compound 94, (2S,4R)-1-((R)-2-(3-(2-((R)-3-(5-(bicyclo[1.1.1]pentan-1-yl)-3-(2-hydroxyphenyl)-5H-pyrrolo[3,2-c]pyridazin-6-yl)pyrrolidin-1-yl)pyrimidin-5-yl)isoxazol-5-yl)-3-methylbutanoyl)-4-hydroxy-N-((S)-1-(4-(4-methylthiazol-5-yl)phenyl)ethyl)pyrrolidine-2-carboxamide] | A (“A” indicates maximum degradation ≥75%) |
| > 50 | < 10 | > 10 | Cc1ncsc1-c1ccc([C@H](C)NC(=O)[C@@H]2C[C@@H](O)CN2C(=O)[C@@H](c2cc(-c3cnc(N4CC[C@H](c5cc6nnc(-c7ccccc7O)cc6n5C56CC(C5)C6)C4)nc3)no2)C(C)C)cc1 [Compound 95, (2S,4R)-1-((R)-2-(3-(2-((S)-3-(5-(bicyclo[1.1.1]pentan-1-yl)-3-(2-hydroxyphenyl)-5H-pyrrolo[3,2-c]pyridazin-6-yl)pyrrolidin-1-yl)pyrimidin-5-yl)isoxazol-5-yl)-3-methylbutanoyl)-4-hydroxy-N-((S)-1-(4-(4-methylthiazol-5-yl)phenyl)ethyl)pyrrolidine-2-carboxamide] | A (“A” indicates maximum degradation ≥75%) |
| > 50 | < 10 | > 10 | Cc1ncsc1-c1ccc([C@H](C)NC(=O)[C@@H]2C[C@@H](O)CN2C(=O)[C@@H](c2cc(N3CCC4(CC[C@H](c5cc6nnc(-c7ccccc7O)cc6n5C5CC5)C4)CC3)no2)C(C)C)cc1 [Compound 96, (2S,4R)-1-((R)-2-(3-((S)-2-(5-cyclopropyl-3-(2-hydroxyphenyl)-5H-pyrrolo[3,2-c]pyridazin-6-yl)-8-azaspiro[4.5]decan-8-yl)isoxazol-5-yl)-3-methylbutanoyl)-4-hydroxy-N-((S)-1-(4-(4-methylthiazol-5-yl)phenyl)ethyl)pyrrolidine-2-carboxamide] | A (“A” indicates maximum degradation ≥75%) |
| < 50 | < 10 | – | Cc1ncsc1-c1ccc([C@H](C)NC(=O)[C@@H]2C[C@@H](O)CN2C(=O)[C@@H](c2cc(N3CCC4(CC[C@@H](c5cc6nnc(-c7ccccc7O)cc6n5C5CC5)C4)CC3)no2)C(C)C)cc1 [Compound 97, (2S,4R)-1-((R)-2-(3-((R)-2-(5-cyclopropyl-3-(2-hydroxyphenyl)-5H-pyrrolo[3,2-c]pyridazin-6-yl)-8-azaspiro[4.5]decan-8-yl)isoxazol-5-yl)-3-methylbutanoyl)-4-hydroxy-N-((S)-1-(4-(4-methylthiazol-5-yl)phenyl)ethyl)pyrrolidine-2-carboxamide] | A (“A” indicates maximum degradation ≥75%) |
